Structures are written as SMILES. “And” between values parts separate entries of the source, which are not always exact repeats. Identical values can stand only once.

Results on 3 molecules are retold here after patent publication US20130245110A1, “USE FOR CANNABINOIDS” (priority 2008, published 2013).

Assay [1] concerns dietary induced obese (DIO) mouse model. The experiment in a line: Thermic response to food (energy expenditure after Complan meal), chronic dosing study. Details: Thermic response to food: unit not given here. Format: in vivo. The conditions noted are these: DIO mice, days 15-17; for Thermic response to food: 10 mg·kg−1 p.o. From the text:
(§1) Once the acute studies were complete the mice were grouped in two groups of five mice for the chronic dosing study. Dosing was daily by oral gavage at 09:00-10:00.
Energy expenditure consists of basal metabolic rate, exercise-induced energy expenditure, and non-exercise thermogenesis. The latter is the most likely area to be affected by anti-obesity agents. Non-exercise thermogenesis includes the thermic response to food, which in rodents can be measured by examining energy expenditure in response to a meal. This was measured after an oral dose of complan (see methods).

Assay [2] has the same test system. The experiment in a line: 24 h energy expenditure by indirect calorimetry, chronic dosing study. Format: in vivo. The following applies: DIO mice; 10 mg·kg−1 p.o.; relative to control, first 12 h post-dosing.
Source text: The C57B1/6 mouse fed on a high fat diet for around 12 weeks is a standard model used to evaluate agents likely to affect metabolic disease including obesity, type II diabetes and dyslipidaemia. Thus both potential anti-obesity effects and effects on diabetic and dyslipidaemia parameters will be measured.
as §1

Assay [3] relates to rat isolated aortae. As to the kind of experiment: In vitro vascular studies by wire myography.
The target in assay [4] is T1, pancreatic lipase (Homo sapiens, UniProt P16233).
T1 construct: host or cells: endogenous enzyme in subjects (in vivo)
T1 sequence (P16233 17-465): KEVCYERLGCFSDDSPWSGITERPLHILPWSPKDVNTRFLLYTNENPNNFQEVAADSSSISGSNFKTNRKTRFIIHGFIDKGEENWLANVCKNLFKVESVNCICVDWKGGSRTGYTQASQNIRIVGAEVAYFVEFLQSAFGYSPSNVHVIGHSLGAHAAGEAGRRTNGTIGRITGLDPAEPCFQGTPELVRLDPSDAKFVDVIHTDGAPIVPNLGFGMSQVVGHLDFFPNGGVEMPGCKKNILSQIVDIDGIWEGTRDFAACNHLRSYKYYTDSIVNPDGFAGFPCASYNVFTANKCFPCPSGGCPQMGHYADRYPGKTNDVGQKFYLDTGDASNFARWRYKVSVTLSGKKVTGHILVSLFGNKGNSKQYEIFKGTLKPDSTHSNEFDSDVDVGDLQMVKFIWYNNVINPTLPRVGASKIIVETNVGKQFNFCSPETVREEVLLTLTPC
The following applies: subjects eating a 30% fat diet; cited from earlier work.

For `Cc1c(C(=O)NN2CCCCC2)nn(-c2ccc(Cl)cc2Cl)c1-c1ccc(Cl)cc1` [rimonabant, reference compound], the “Thermic response to food” value in assay [1] (Hour 0.44) was 1.11 and 1.21 and 2.21; in assay [1] (Hour 0.67), 1.38 and 1.56 and 2.67; in assay [1] (Hour 4.00), 1.56 and 2.90 and 3.09. The “Thermic response to food, effect in words” value in assay [1] (chronic-study doses (rimonabant 10, pure THCV 0.3 mg·kg−1 p.o.)) is recorded as “without effect”. For the same molecule, the “Effect on 24 h energy expenditure (days 10-12)” value in assay [2] is “small increase in energy expenditure”.
With `COc1ccc(CCN(C)CCCC(C#N)(c2ccc(OC)c(OC)c2)C(C)C)cc1OC` (stereo not shown) [verapamil, reference compound], the “Vasorelaxation of pre-constricted vessels” value in assay [3] is “significant vasorelaxation”.
For `CCCCCCCCCCC[C@@H](C[C@@H]1OC(=O)[C@H]1CCCCCC)OC(=O)[C@H](CC(C)C)NC=O` [Orlistat], the “Block of triacylglycerol hydrolysis” value in assay [4] is given as 30%.
